biological target: Epidermal growth factor receptor (Homo sapiens, UniProt P00533); experiment: Inhibition of wild-type EGFR expressed using baculovirus expression system by ELISA
Sequence (P00533 whole entry): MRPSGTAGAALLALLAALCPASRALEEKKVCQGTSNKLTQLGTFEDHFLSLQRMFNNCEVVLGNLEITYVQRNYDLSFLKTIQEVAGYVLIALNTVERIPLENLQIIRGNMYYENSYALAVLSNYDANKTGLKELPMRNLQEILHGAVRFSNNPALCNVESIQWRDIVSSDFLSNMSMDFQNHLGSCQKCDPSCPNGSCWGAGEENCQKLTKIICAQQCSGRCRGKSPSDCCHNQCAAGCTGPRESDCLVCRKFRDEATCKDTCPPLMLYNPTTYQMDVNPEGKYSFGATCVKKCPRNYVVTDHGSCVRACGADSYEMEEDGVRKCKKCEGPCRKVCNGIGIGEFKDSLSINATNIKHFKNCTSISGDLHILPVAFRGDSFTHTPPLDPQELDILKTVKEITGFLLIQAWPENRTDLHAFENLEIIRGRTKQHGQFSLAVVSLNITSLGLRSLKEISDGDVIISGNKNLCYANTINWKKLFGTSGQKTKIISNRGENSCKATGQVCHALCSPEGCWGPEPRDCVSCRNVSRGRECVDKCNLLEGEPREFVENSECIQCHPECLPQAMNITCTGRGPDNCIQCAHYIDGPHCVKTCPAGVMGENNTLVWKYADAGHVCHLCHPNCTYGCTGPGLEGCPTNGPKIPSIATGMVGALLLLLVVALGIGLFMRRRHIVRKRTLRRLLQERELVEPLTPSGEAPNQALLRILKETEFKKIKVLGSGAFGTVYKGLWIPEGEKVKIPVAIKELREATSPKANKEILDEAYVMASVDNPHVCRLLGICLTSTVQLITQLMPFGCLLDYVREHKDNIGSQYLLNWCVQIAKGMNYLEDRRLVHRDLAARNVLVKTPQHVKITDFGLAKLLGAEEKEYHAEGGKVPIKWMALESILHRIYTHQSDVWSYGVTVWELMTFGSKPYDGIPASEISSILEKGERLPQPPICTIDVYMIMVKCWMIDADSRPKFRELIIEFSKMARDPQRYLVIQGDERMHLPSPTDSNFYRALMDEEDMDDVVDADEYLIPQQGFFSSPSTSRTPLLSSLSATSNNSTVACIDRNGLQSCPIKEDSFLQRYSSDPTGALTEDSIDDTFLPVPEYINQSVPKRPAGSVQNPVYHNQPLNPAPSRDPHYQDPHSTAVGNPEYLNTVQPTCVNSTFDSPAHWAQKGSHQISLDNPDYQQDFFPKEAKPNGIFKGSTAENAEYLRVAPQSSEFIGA

| SMILES | IC50 [µM] |
| --- | --- |
| CNc1nc(N=NCc2ccc(OC)cc2)nc(Nc2ccccc2)n1 | > 100 |
| CNc1nc(N=NCc2ccc(O)cc2)nc(Nc2ccccc2)n1 | > 100 |
| Cn1cc(NC(=O)CN=O)c(=O)n1-c1ccccc1 | > 100 |

From BindingDB's records for doi:10.1016/j.bmcl.2011.12.067 (Dalian University of Technology, 2012)
